Measured values reported in patent publication US7087634B2, “Cyclic AMP-specific phosphodiesterase inhibitors” (ICOS Corporation, priority 1999, dated 2006).
pIC50: −log10 of the molar value.

Assays:
[1] = test system: TNFα release from human peripheral blood lymphocytes; assay: Lipopolysaccharide-stimulated TNFα release from human peripheral blood lymphocytes; assay type: cell-based; conditions: preliminary experiments
Experimental: The compounds of structural formulae (I) and (II) were tested for an ability to reduce TNFα secretions in human peripheral blood lymphocytes. The ability of a compound to reduce TNFα secretion is related to the EC50 value for the compound (i.e., the effective concentration of the compound capable of inhibiting 50% of the total TNFα).
To assess the ability of a compound to reduce TNFα secretion in human peripheral blood lymphocytes (PBL), the following tests were performed.
Heparinized blood (approximately 30 mL) drawn from human volunteers was mixed 1:1 with Dulbecco's modified phosphate-buffered saline. This mixture was mixed 1:1 with HISTOPAQUE® and centrifuged at 1,500 rpm at room temperature without braking in the swinging bucket of a Beckman model TJ6 centrifuge. Erythrocytes were centrifuged to the bottom of the tubes, and serum remained at the surface of the tubes. A layer containing lymphocytes sedimented between the serum and HISTOPAQUE® layers, and was removed by aspiration to a fresh tube. The cells were quantified and adjusted to […] and a 100 μL aliquot is placed into the wells of a 96 well plate. Test compounds and RPMI media (Gibco/BRL Life Sciences) are added to each of the wells 15 minutes prior to addition of bacterial LPS ([…]). The mixture was allowed to incubate for 20 hours at 37° C. in a humidified chamber. The cells then were separated by centrifuging at 800 rpm for 5 minutes at room temperature. An aliquot of 180 μL of supernatant was transferred to a new plate for determination of TNFα concentration. TNFα protein in the cell supernatant fluids was measured using a commercially available enzyme-linked immunosorbent assay (ELISA) (CYTOSCREEN® Immunoassay Kit from Biosource International).
(§1) The cell-based assay provided the following results for various compounds of the present invention. The EC50. values (i.e., effective concentration of the compound capable of inhibiting 50% of the total TNFα) illustrate the ability of the present compounds to inhibit LPS-stimulated TNFα release from human PBL.
as §1, with “various pyrazole” for “various”, “EC50” for “EC50.”, “concentrations” for “concentration”, “peripheral blood lymphocytes.” for “PBL.”

recombinant human PDE4 = conditions: background, reported value; read-out: reported IC50 with respect to recombinant human PDE4; cited from earlier work
serum TNFα = assay: Combined mouse endotoxin-stimulated TNFα release assay (serum TNFα); assay type: in vivo; conditions: female Balb/c mice, i.p., LPS model
Experimental: (§2) The purpose of this study was to determine the efficacy of PDE4 inhibitors in vivo in an LPS mouse model together with a determination with respect to central nervous system (CNS) side-effects manifested by a decrease in spontaneous mobility.
(§3) The test animals were female Balb/c mice, having an average weight of about 20 g. The PDE4 inhibitors, formulated in 30% Cremophor® EL, were administered via intraperitoneal (i.p.) injections at doses of 0.1, 1.0, 10.0, and 100 mg/kg. Individual dose volumes (about 150 μL) were adjusted based on the body weights measured. One hour later, 5 mg/kg LPS in a final volume of 200 μL was injected via the tail vein to each animal. Ninety minutes following the LPS treatment, the animals were bled and serum samples were collected before being stored at −70° C. until assayed.
For efficacy determination, the serum samples were diluted two-fold and TNFα levels were determined using the CYTOSCREEN® Immunoassay Kit (Biosource International). The data were averaged between triplicate sample subjects for each of the tested compounds.

[2] = Combined mouse locomotor activity assay (sedative / CNS side-effect scoring); assay type: in vivo; design: key: Vehicle control animals were rated a single “+”; animals that were effectively immobilized and stretched out on the bottom of the cage with little detectable movement were rated as “++++.”; conditions: female Balb/c mice, i.p., 10 mg/kg
Experimental: as §2, §3
For side-effect profiling, a subjective visual scoring system was utilized at 5 min and 20 min after administration of PDE4 inhibitors. […] In this instance, the subjects could be monitored continuously over pre-set intervals.
Movement of the X-Y plane, or rearing up on the hind legs, was quantified by counting the number of “light-beam” crosses per unit of time. […] The quantitative scoring correlated well with the subjective measurements described above.

SMILES	LPS-induced TNFα secretion from human lymphocytes [1]	pIC50 (recombinant human PDE4)	% TNFQ Inhibition (serum TNFα; 1 mg/kg) [%]	% TNFQ Inhibition (serum TNFα; 10 mg/kg) [%]	% TNFQ Inhibition (serum TNFα; 100 mg/kg) [%]	Sedative Effect [2]
COc1ccc(C2CNC(=O)C2)cc1OC1CCCC1 (stereo not drawn) [Rolipram, reference compound]	inhibit LPS-induced TNFα secretion from human lymphocytes in a dose-dependent fashion	~6.70	–	–	–	–
COC(=O)N1C[C@@H](c2ccc(OC)c(OC3CCCC3)c2)[C@](C)(C(C)=O)C1 (relative stereo) [Comparative Example, trans-3-(3-cyclopentoxy-4-methoxyphenyl)-1-methoxycarbonyl-4-methyi-4-(methylcarbonyi)pyrrolidine]	–	–	43	100	100	+
